Assay results: patent US20090155209A1, “NOVEL MACROCYCLIC INHIBITORS OF HEPATITIS C VIRUS REPLICATION” (priority 2007, published 2009)

What was measured:
[1] = biological target: T1, NS3-NS4 (Hepatitis C virus genotype 1a, UniProt P27958); test: NS3-NS4 activity, IC50 (Example 37, Table 8); assay type: biochemical
[2] = biological target: T1, NS3-NS4; test: cell-based; conditions: EC50, NS3-NS4 activity

T1 sequence (P27958 1027-1657): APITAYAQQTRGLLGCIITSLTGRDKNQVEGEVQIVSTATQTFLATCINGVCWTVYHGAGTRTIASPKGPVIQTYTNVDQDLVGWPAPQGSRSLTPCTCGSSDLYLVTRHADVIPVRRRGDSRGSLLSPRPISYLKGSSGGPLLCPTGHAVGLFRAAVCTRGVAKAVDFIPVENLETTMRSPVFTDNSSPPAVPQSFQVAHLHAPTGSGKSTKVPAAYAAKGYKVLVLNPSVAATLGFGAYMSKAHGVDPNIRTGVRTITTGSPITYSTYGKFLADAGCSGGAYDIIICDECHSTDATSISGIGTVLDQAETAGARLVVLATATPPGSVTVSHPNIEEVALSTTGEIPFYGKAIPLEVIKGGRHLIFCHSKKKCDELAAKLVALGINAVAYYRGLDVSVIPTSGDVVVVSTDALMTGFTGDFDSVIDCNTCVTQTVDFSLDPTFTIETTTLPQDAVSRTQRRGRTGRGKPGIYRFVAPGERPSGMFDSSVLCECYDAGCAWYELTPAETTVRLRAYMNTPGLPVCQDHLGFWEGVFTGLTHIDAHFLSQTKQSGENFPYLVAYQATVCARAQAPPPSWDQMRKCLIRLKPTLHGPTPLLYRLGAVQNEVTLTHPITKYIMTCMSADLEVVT
T1 sequence (P27958 1658-1711): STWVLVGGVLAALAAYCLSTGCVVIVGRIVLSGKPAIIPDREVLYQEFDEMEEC

SMILES	IC50 [1]	EC50 [2]
CC(C)(C)OC(=O)N[C@H]1CCCCC/C=C\[C@@H]2C[C@@]2(C(=O)NS(=O)(=O)c2cc(Cl)ccc2Cl)NC(=O)[C@@H]2C[C@@H](OC(=O)N3Cc4cccc(F)c4C3)CN2C1=O [Compound 316]	< 100 nM	< 100 nM
Cc1cccc(S(=O)(=O)NC(=O)[C@@]23C[C@H]2/C=C\CCCCC[C@H](NC(=O)OC(C)(C)C)C(=O)N2C[C@H](OC(=O)N4Cc5cccc(F)c5C4)C[C@H]2C(=O)N3)c1 [Compound 317]	< 100 nM	< 100 nM
Cc1ccc(S(=O)(=O)NC(=O)[C@@]23C[C@H]2/C=C\CCCCC[C@H](NC(=O)OC(C)(C)C)C(=O)N2C[C@H](OC(=O)N4Cc5cccc(F)c5C4)C[C@H]2C(=O)N3)cc1 [Compound 318]	< 100 nM	< 100 nM
CC(C)(C)OC(=O)N[C@H]1CCCCC/C=C\[C@@H]2C[C@@]2(C(=O)NS(=O)(=O)c2cc(Cl)sc2Cl)NC(=O)[C@@H]2C[C@@H](OC(=O)N3Cc4ccccc4C3)CN2C1=O [Compound 319]	< 100 nM	< 100 nM
CCc1ccc(S(=O)(=O)NC(=O)[C@@]23C[C@H]2/C=C\CCCCC[C@H](NC(=O)OC(C)(C)C)C(=O)N2C[C@H](OC(=O)N4Cc5cccc(F)c5C4)C[C@H]2C(=O)N3)cc1 [Compound 320]	< 100 nM	< 100 nM
Cc1ccccc1S(=O)(=O)NC(=O)[C@@]12C[C@H]1/C=C\CCOCC[C@H](NC(=O)OC(C)(C)C)C(=O)N1C[C@H](OC(=O)N3Cc4cccc(Cl)c4C3)C[C@H]1C(=O)N2 [Compound 321, (2R,6S,13aS,14aR,16aSZ)-6-(tert-butoxycarbonylamino)-5,16-dioxo-14a-(o-tolylsulfonylcarbamoyl)-2,3,5,6,7,8,10,11,13a,14,14a,15,16,16a-tetradecahydro-1H-cyclopropa[j]pyrrolo[1,2-f][1,6,9]oxadiazacyclopentadecin-2-yl 4-chloroisoindoline-2-carboxylate]	< 100 nM	< 100 nM
CC(C)(C)OC(=O)N[C@H]1CCOCC/C=C\[C@@H]2C[C@@]2(C(=O)NS(=O)(=O)c2cc(Cl)sc2Cl)NC(=O)[C@@H]2C[C@@H](OC(=O)N3Cc4cccc(Cl)c4C3)CN2C1=O [Compound 322, (2R,6S,13aS,14aR,16aS,Z)-6-(tert-butoxycarbonylamino)-14a-(2,5-dichlorothiophen-3-ylsulfonylcarbamoyl)-5,16-dioxo-2,3,5,6,7,8,10,11,13a,14,14a,15,16,16a-tetradecahydro-1H-cyclopropa[j]pyrrolo[1,2-f][1,6,9]oxadiazacyclopentadecin-2-yl 4-chloroisoindoline-2-carboxylate]	< 100 nM	< 100 nM
CC(C)(C)OC(=O)N[C@H]1CCOCC/C=C\[C@@H]2C[C@@]2(C(=O)NS(=O)(=O)c2ccc(Cl)cc2)NC(=O)[C@@H]2C[C@@H](OC(=O)N3Cc4cccc(Cl)c4C3)CN2C1=O [Compound 324, (2R,6S,13aS,14aR,16aSZ)-6-(tert-butoxycarbonylamino)-14a-(4-chlorophenylsulfonylcarbamoyl)-5,16-dioxo-2,3,5,6,7,8,10,11,13a,14,14a,15,16,16a-tetradecahydro-1H-cyclopropa[j]pyrrolo[1,2-f][1,6,9]oxadiazacyclopentadecin-2-yl 4-chloroisoindoline-2-carboxylate]	< 100 nM	< 100 nM
CCC(C)(C)OC(=O)N[C@H]1CCOCC/C=C\[C@@H]2C[C@@]2(C(=O)NS(=O)(=O)c2ccc(Cl)cc2)NC(=O)[C@@H]2C[C@@H](OC(=O)N3Cc4cccc(Cl)c4C3)CN2C1=O [Compound 325, (2R,6S,13aS,14aR,16aS,Z)-14a-(4-chlorophenylsulfonylcarbamoyl)-5,16-dioxo-6-(tert-pentyloxycarbonylamino)-2,3,5,6,7,8,10,11,13a,14,14a,15,16,16a-tetradecahydro-1H-cyclopropa[j]pyrrolo[1,2-f][1,6,9]oxadiazacyclopentadecin-2-yl 4-chloroisoindoline-2-carboxylate]	< 100 nM	< 100 nM
